Results as given in US10196606B2, “Method of producing multipotent stem cells” (FLINDERS UNIVERSITY OF SOUTH AUSTRALIA, priority 2011, dated 2019).

How the values were obtained:
ALK6 = ALK6 (Homo sapiens, UniProt O00238); conditions: cited from earlier work
ALK4 = target: T1, ALK4 (Homo sapiens, UniProt P36896); conditions: cited from earlier work
T1 sequence (P36896 24-505): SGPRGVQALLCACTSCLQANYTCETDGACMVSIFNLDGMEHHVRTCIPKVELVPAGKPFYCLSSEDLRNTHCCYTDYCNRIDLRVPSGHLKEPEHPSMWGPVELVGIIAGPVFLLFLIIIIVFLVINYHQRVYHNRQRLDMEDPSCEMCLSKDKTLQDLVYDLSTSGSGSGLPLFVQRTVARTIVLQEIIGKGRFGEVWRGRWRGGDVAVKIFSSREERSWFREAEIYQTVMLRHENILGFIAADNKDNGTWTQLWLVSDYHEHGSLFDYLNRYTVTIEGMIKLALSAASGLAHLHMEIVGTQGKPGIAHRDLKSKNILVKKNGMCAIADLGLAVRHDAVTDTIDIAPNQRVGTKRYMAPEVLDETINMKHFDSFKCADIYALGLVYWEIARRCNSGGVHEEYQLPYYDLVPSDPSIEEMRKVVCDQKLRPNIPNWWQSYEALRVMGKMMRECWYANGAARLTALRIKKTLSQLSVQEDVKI

ALK1 = ALK1 (Homo sapiens, UniProt P37023); conditions: cited from earlier work
Sequence of ALK1 (P37023 22-503, species assumed): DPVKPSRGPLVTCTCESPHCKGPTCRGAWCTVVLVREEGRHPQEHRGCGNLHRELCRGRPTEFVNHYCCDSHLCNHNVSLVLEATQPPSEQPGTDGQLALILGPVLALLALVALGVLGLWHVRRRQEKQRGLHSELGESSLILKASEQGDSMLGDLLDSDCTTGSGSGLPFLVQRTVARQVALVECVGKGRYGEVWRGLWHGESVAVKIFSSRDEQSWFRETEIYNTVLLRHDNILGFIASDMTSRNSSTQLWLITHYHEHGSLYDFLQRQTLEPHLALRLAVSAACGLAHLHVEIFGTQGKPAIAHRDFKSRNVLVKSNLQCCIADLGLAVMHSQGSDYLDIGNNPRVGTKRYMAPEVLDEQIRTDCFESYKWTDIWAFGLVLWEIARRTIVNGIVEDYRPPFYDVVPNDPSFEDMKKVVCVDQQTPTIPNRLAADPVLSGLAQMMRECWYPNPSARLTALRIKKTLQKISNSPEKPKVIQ

ALK3 = ALK3 (Homo sapiens, UniProt P36894); conditions: cited from earlier work
Sequence of ALK3 (P36894 24-532): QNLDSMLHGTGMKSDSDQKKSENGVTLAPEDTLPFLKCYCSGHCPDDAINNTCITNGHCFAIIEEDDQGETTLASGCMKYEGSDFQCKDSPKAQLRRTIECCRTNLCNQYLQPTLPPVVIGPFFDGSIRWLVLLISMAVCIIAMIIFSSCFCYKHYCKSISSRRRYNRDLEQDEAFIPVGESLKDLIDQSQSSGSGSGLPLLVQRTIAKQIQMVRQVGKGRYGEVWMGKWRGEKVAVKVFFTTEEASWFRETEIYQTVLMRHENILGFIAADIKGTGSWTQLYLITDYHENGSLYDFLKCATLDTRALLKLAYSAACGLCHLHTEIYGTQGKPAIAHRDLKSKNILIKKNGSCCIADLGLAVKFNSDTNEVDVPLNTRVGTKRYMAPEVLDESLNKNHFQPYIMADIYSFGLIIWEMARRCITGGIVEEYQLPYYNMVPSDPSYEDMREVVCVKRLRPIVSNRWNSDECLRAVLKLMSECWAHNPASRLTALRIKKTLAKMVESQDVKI

ALK2 = target: T2, ALK2 (Homo sapiens, UniProt Q04771); conditions: cited from earlier work
T2 sequence (Q04771 21-509): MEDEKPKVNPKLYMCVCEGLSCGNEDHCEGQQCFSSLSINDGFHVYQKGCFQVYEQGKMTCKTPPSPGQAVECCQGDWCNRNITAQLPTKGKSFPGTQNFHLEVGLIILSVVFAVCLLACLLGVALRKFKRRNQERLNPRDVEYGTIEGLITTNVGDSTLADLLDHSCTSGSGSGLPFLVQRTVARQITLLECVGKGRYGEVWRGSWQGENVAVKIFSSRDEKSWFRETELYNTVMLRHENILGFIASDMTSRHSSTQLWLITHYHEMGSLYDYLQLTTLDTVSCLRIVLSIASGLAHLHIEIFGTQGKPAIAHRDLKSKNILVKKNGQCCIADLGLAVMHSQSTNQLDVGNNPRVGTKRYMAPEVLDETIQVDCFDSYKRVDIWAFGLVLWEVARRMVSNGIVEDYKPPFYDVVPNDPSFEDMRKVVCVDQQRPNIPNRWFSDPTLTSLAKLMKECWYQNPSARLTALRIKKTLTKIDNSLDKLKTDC

[1] = test system: human umbilical cord fibroblast (HUCF) cells; experiment: Induction of ALP positive colonies from HUCF, single induction cycle; type: cell-based; conditions: one induction cycle, 7 days in NSC media
Protocol: At passage 17, HUCF cells were labelled with an anti-p75NTR antibody and underwent cell sorting for p75-NTR expression as described below, p75NTR-negative cells were used for all experiments of the induction by small molecules described below. Two hours before induction, p75-NTR^− HUCF were seeded at 1.4×10^5 per 35 mm tissue culture dishes coated with poly-D-lysine. On Day 1, the cells were induced in human induced pluripotent stem cell culture medium (HIPS) (DMEM/F12 supplemented with 25% KSR (Invitrogen), 1% non-essential amino acids (Invitrogen), 1% L-glutamine (Invitrogen), 50 units ml-1 penicillin, 50 μg ml-1 streptomycin, 10 ng ml-1 bFGF, and 0.1 mM β-mercaptoethanol (Invitrogen)) containing various combinations of small molecules as described below. The small molecules were used at the following concentrations: 0.5 μM PD0325901, 0.5 μM PD184352 (Millipore Merck), 72 nM U0216 (Millipore Merck), 0.4 μM RG108. […] 5-aza-2′-deoxycytidine (Millipore Merck) and 1 μM BIX01294. On day 2, the media was replaced with stem cell media (SCM) in the absence of small molecules as described in Example 1, except where indicated, the media was HIPS media in the absence of small molecules. On day 4, the cells were dissociated using 1 ml (1×) Tryple-E enzyme (Invitrogen) and seeded on 35 mm Petri dish with Neural Stem Cell (NSC) media (Neurobasal Medium (Invitrogen) supplemented with 10 ng/m bFGF and EGF with 50 units/ml penicillin, 50 μg/ml streptomycin). Colonies were maintained in NSC media for 7 days to induce neural stem cells unless stated otherwise.
Cells were induced with a combination of small molecules as described above and stained with ALP as described in Example 1, and examined using phase contrast microscopy.

cell reprogramming = conditions: cited from earlier work
[2] = test system: mouse embryonic fibroblasts (MEF); experiment: Induction of SMINS cells / ALP-positive neurospheres from MEF, 6 induction cycles; type: cell-based; conditions: withdrawal of individual small molecules from the combination
Protocol: (§1) Mouse embryonic fibroblasts (MEF) and mouse adult tail-tip fibroblasts (TTF) were isolated from C57/BL6 mice as described previously^2. Both cell types (ie MEF and TTF) were cultured in MEF medium (Dulbecco's Modified Eagle Medium (DMEM; Invitrogen Corporation, Carlsbad, Calif., United States of America) containing 10% Fetal Bovine Serum (FBS; Thermo Fisher Scientific, Waltham, Mass., United. States of America), 50 units/ml penicillin and 50 μg/ml streptomycin (Invitrogen)). Native NS cells were cultured from mouse brain at E12-E14 as positive controls in neural stem (NS) cell media.
(§2) 35 mm tissue culture dishes were coated with feeder cells (fibroblasts cultured from mouse embryo and seeded at 1.4×10^5 cells per 35 mm tissue culture dish) before induction. The MEF (passage 3) or TTF were seeded at 1.4×10^5 per 35 mm feeder cell-coated dish. The cells were induced in 6 cycles. […] The cells were then cultured in SCM in the absence of the small molecules for the next two days. Then, the cycle was repeated 5 times. Next, the cells were passaged and suspended in a drop of […] containing at least 50 cells for two days. Finally, the cells were cultured in the neural stem (NS) cell medium (DMEM/F12 (Invitrogen) supplemented with B-27 (1:50; Gibco Inc, Billings, Mont., United States of America), 50 units ml^−1 penicillin, 50 μg ml^−1 streptomycin, 8 mM HEPES buffer, 20 ng ml^−1 epidermal growth factor (EGF), 10 ng ml^−1 basic fibroblast growth factor (bFGF) for two weeks.
(§3) ES culture medium (also referred to as SCM herein) was added to NS and SMINS cells overnight. Alkaline phosphatase staining was carried out according to the manufacturer's protocol (Hoffman-La Roche, Basel, Switzerland). For the immunofluorescence staining, cells were washed with phosphate buffered saline (PBS) and then fixed with 4% paraformaldehyde for 10 min. After washing twice with PBS, the cells were permeabilised with 0.1% Triton X-100 for 20 min. Cells were then washed twice and blocked in blocking buffer (a solution of PBS containing 1% FBS and 4% bovine serum albumin (BSA)) for 1 hour. […]

[3] = test system: mouse adult tail-tip fibroblasts (TTF); experiment: Induction of SMINS cells / ALP-positive neurospheres from TTF; type: cell-based
Protocol: as §1, §2, §3

Sequence of ALK6 (O00238 14-502): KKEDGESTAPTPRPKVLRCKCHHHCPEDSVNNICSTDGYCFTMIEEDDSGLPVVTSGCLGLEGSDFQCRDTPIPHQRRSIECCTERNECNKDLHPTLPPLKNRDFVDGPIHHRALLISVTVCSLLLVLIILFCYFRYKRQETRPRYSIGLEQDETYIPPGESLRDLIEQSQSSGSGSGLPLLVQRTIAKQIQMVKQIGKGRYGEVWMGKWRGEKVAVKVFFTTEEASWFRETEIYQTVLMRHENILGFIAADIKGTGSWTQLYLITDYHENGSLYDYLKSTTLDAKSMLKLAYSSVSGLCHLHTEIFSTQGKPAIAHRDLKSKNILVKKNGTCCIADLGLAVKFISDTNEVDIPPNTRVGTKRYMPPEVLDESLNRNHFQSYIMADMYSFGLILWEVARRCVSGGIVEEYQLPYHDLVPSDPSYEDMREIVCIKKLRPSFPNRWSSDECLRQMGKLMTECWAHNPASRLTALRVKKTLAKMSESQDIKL

SMILES | induction of ALP positive colonies from HUCF [1] | essential for generation of SMINS-MEF cells [2] | ALP-positive neurosphere produced from TTF [3] | also measured
Cc1cccc(-c2nn(C(=S)Nc3ccccc3)cc2-c2ccnc3ccccc23)n1 [A83-01, 3-(6-Methyl-2-pyridinyl)-N-phenyl-4-(4-quinolinyl)-1H-pyrazole-1-carbothioamide] | – | – | – | inhibition of ALK6 (ALK6): only weakly inhibits; IC50 (ALK4): 12 nM; inhibition of ALK1 (ALK1): only weakly inhibits; inhibition of ALK3 (ALK3): only weakly inhibits; inhibition of ALK2 (ALK2): only weakly inhibits
N#CC(=C(/N)Sc1ccccc1N)/C(C#N)=C(/N)Sc1ccccc1N [U0216] | induced ALP positive colonies | – | – | –
O=C(NOCC1CC1)c1ccc(F)c(F)c1Nc1ccc(I)cc1Cl [PD184352, 2-(2-chloro-4-iodo-phenylamino)-N-cyclopropylmethoxy-3,4-difluoro-benzamide] | induced ALP positive colonies | – | – | –
CCCC(CCC)C(=O)O [valproic acid] | – | – | – | improvement of the efficiency of cell reprogramming by some induction processes (cell reprogramming): at least 100 fold
O=C(O)[C@H](Cc1c[nH]c2ccccc12)N1C(=O)c2ccccc2C1=O [RG108, 1H-Indole-3-propanoic acid, α-(1,3-dihydro-1,3-dioxo-2H-isoindol-2-yl)-, (αS)—] | – | required for the induction | No | –
O=C(NOCC(O)CO)c1ccc(F)c(F)c1Nc1ccc(I)cc1F (stereo not shown) [PD325901, N-(2,3-dihydroxy-propoxy)-3,4-difluoro-2-(2-fluoro-4-iodo-phenylamino)-benzamide] | induced ALP positive colonies | required for the induction | Yes | –
